Patent USRE48335E1, “Polymyxin derivatives as antimicrobial compounds” (priority 2014, dated 2020)
≈ marks a conversion by molar mass, not a printed value. Starred links: 1 amine or outer side, 2 acyl side, 3 side chain; linkers in the order of their positions; H or OH if unused. Positions of bridges follow the written chain, without caps; N, C: chain ends. Non-standard residues stand in square brackets, D forms with d. Residues, ends and D or L forms follow the SMILES beside them. ξ: configuration not given here. *: point of attachment. X2 = CC(C)C[C@@H](CC(=O)[C@H](CCN)N[*:1])C(=O)[*:2]; Heptanoyl(6-Me) = CC(C)CCCCC(=O)*; Thr(3ξ) = CC(O)[C@H](N)C(=O)O; dNle = CCCC[C@@H](N)C(=O)O; Octanoyl = CCCCCCCC(=O)*; X5 = Cc1cc(C(=O)*)ccc1Cl; Dab = NCC[C@H](N)C(=O)O; Abu = CC[C@H](N)C(=O)O; Dap = NC[C@H](N)C(=O)O

What was measured:
[1] = system: Acinetobacter baumannii
Summary of the method: (§1)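 Using polymyxin B sulphate as comparator control, the trifluoroacetate-salt lipopeptides were assayed in CAMHB by broth microdilution to CLSI M100-S18, and MICs recorded.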

[2] = system: Enterobacter cloacae
Summary of the method: as §1

[3] = system: Klebsiella pneumoniae
Summary of the method: as §1

[4] = system: Pseudomonas aeruginosa
Summary of the method: as §1

[5] = system: A. baumannii ATCC 19606; test: In vivo efficacy in mouse blood infection model (neutropenic Swiss mice); settings: compound, free base 4 mg/kg intravenously 2 h after inoculation, blood at 4 h
Summary of the method: (§2)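 Activity expressed as Δlog10 CFU/mL blood, treated minus saline control, 4 h after a single 4 mg/kg (free base) i.v. dose given 2 h post-infection. Bloodstream infection from i.v. early log-phase inoculum in Swiss mice made neutropenic by i.p. cyclophosphamide on days −4 (150 mg/kg) and −1 (100 mg/kg).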

[6] = system: K. pneumoniae FADDI-KP032; test: as above; settings: compound, free base 4 mg/kg intravenously 2 h after inoculation, blood at 4 h
Summary of the method: as §2

[7] = system: P. aeruginosa ATCC 27853; test: as above; settings: compound, free base 4 mg/kg intravenously 2 h after inoculation, blood at 4 h
Summary of the method: as §2

## CC(C)CCCCC(=O)N[C@@H](CCN)C(=O)N[C@H](C(=O)N[C@H](CO)C(=O)N[C@H]1CCNC(=O)[C@H]([C@@H](C)O)NC(=O)[C@H](CCN)NC(=O)[C@H](CCN)NC(=O)[C@H]([C@@H](C)O)NC(=O)[C@@H](CC(C)C)NC(=O)[C@H](CCN)NC1=O)[C@@H](C)O [Compound 151, polymyxin D2] ({Heptanoyl(6-Me)}-[Dab]T[dS][Dab][Dab][dL]T[Dab][Dab]T; lactam 4-C)
[1]
  MIC: 0.5 µg/mL (≈ 0.442 µM)
  Minimum inhibitory concentration (MIC), Ab ATCC 17978: 0.25 µg/mL (≈ 0.221 µM)
  Minimum inhibitory concentration (MIC), Ab ATCC 19606: 0.5 µg/mL (≈ 0.442 µM)
  Minimum inhibitory concentration (MIC), Ab FADDI-AB034: 0.5 µg/mL (≈ 0.442 µM)
[2]
  Minimum inhibitory concentration (MIC), Ec FADDI-EC001: 0.25 µg/mL (≈ 0.221 µM)
  Minimum inhibitory concentration (MIC), Ec FADDI-EC003: 0.25 µg/mL (≈ 0.221 µM)
  Minimum inhibitory concentration (MIC), Ec FADDI-EC006: 0.25 µg/mL (≈ 0.221 µM)
[3]
  MIC: 0.5 µg/mL (≈ 0.442 µM)
[4]
  MIC: 4 µg/mL (≈ 3.54 µM)
  Minimum inhibitory concentration (MIC), Pa ATCC 27853: 4 µg/mL (≈ 3.54 µM)
  Minimum inhibitory concentration (MIC), Pa FADDI-PA022: 4 µg/mL (≈ 3.54 µM)
  Minimum inhibitory concentration (MIC), Pa FADDI-PA025: >32 µg/mL
[5]
  Δ log (Treated-Control at 4 h): −1.59 log10 CFU/mL
[6]
  Δ log (Treated-Control at 4 h): −4.71 log10 CFU/mL
[7]
  Δ log (Treated-Control at 4 h): −0.40 log10 CFU/mL

## CCCCCCCC(=O)N[C@@H](CCN)C(=O)N[C@H](C(=O)N[C@@H](CCN)C(=O)N[C@H]1CCNC(=O)[C@H]([C@@H](C)O)NC(=O)[C@H](CCN)NC(=O)[C@H](CCN)NC(=O)[C@H]([C@@H](C)O)NC(=O)[C@@H](CC(C)C)NC(=O)[C@H](CCN)NC1=O)[C@@H](C)O [Compound 20] (Octanoyl-[Dab]T[Dab][Dab][Dab][dL]T[Dab][Dab]T; lactam 4-C)
[1]
  MIC: 4 µg/mL (≈ 3.5 µM)
  Minimum inhibitory concentration, Ab A ATCC 17978: 4 µg/mL (≈ 3.5 µM)
  Minimum inhibitory concentration, Ab ATCC 19606: 4 µg/mL (≈ 3.5 µM)
  Minimum inhibitory concentration, Ab FADDI-AB034: 2 µg/mL (≈ 1.75 µM)
[2]
  Minimum inhibitory concentration, Ec FADDI-EC001: <0.125 µg/mL
  Minimum inhibitory concentration, Ec FADDI-EC003: 0.5 µg/mL (≈ 0.437 µM)
  Minimum inhibitory concentration, Ec FADDI-EC006: <0.125 µg/mL
[3]
  MIC: 0.25 µg/mL (≈ 0.219 µM)
[4]
  MIC: 0.5 µg/mL (≈ 0.437 µM)
  Minimum inhibitory concentration, Pa ATCC 27853: 0.5 µg/mL (≈ 0.437 µM)
  Minimum inhibitory concentration, Pa FADDI-PA022: 0.5 µg/mL (≈ 0.437 µM)
  Minimum inhibitory concentration, Pa FADDI-PA025: >32 µg/mL
[5]
  Δ log (Treated-Control at 4 h): −1.86 log10 CFU/mL
[6]
  Δ log (Treated-Control at 4 h): −3.50 log10 CFU/mL
[7]
  Δ log (Treated-Control at 4 h): −2.13 log10 CFU/mL

## CCCCCCCC(=O)N[C@@H](CCN)C(=O)N[C@H](C(=O)N[C@H](CO)C(=O)N[C@H]1CCNC(=O)[C@H](C(C)O)NC(=O)[C@H](CCN)NC(=O)[C@H](CCN)NC(=O)[C@H](C(C)O)NC(=O)[C@@H](CC(C)C)CC(=O)[C@H](CCN)NC1=O)C(C)O (stereo partly drawn) [Compound 1] (Octanoyl-[Dab][Thr(3ξ)][dS][Dab][X2][Thr(3ξ)][Dab][Dab][Thr(3ξ)]; lactam 4-C)
[1]
  MIC: <0.125 µg/mL
  Minimum inhibitory concentration, Ab A ATCC 17978: 0.25 µg/mL (≈ 0.221 µM)
  Minimum inhibitory concentration, Ab ATCC 19606: 1 µg/mL (≈ 0.885 µM)
  Minimum inhibitory concentration, Ab FADDI-AB034: 0.25 µg/mL (≈ 0.221 µM)
[2]
  Minimum inhibitory concentration, Ec FADDI-EC001: <0.125 µg/mL
  Minimum inhibitory concentration, Ec FADDI-EC003: <0.125 µg/mL
  Minimum inhibitory concentration, Ec FADDI-EC006: 0.5 µg/mL (≈ 0.443 µM)
[3]
  MIC: 0.5 µg/mL (≈ 0.443 µM)
[4]
  MIC: 4 µg/mL (≈ 3.54 µM)
  Minimum inhibitory concentration, Pa ATCC 27853: 4 µg/mL (≈ 3.54 µM)
  Minimum inhibitory concentration, Pa FADDI-PA022: 4 µg/mL (≈ 3.54 µM)
  Minimum inhibitory concentration, Pa FADDI-PA025: >32 µg/mL
[5]
  Δ log (Treated-Control at 4 h): −2.13 log10 CFU/mL
[6]
  Δ log (Treated-Control at 4 h): −3.49 log10 CFU/mL
[7]
  Δ log (Treated-Control at 4 h): 0.40 log10 CFU/mL

## CC[C@@H]1NC(=O)[C@@H](CC(C)C)NC(=O)[C@H](CCN)NC(=O)[C@@H](NC(=O)[C@H](CN)NC(=O)[C@@H](NC(=O)[C@H](CCN)NC(=O)c2ccc(Cl)c(C)c2)[C@@H](C)O)CCNC(=O)[C@H]([C@@H](C)O)NC(=O)[C@H](CCN)NC(=O)[C@H](CCN)NC1=O [Compound 104] (X5-[Dab]T[Dap][Dab][Dab][dL][Abu][Dab][Dab]T; lactam 4-C)
[1]
  MIC: 1 µg/mL (≈ 0.877 µM)
  Minimum inhibitory concentration, Ab A ATCC 17978: 0.5 µg/mL (≈ 0.439 µM)
  Minimum inhibitory concentration, Ab ATCC 19606: 1 µg/mL (≈ 0.877 µM)
  Minimum inhibitory concentration, Ab FADDI-AB034: 0.25 µg/mL (≈ 0.219 µM)
[2]
  Minimum inhibitory concentration, Ec FADDI-EC001: 0.5 µg/mL (≈ 0.439 µM)
  Minimum inhibitory concentration, Ec FADDI-EC003: 0.25 µg/mL (≈ 0.219 µM)
  Minimum inhibitory concentration, Ec FADDI-EC006: 0.5 µg/mL (≈ 0.439 µM)
[3]
  MIC: 1 µg/mL (≈ 0.877 µM)
[4]
  MIC: 0.5 µg/mL (≈ 0.439 µM)
  Minimum inhibitory concentration, Pa ATCC 27853: 0.5 µg/mL (≈ 0.439 µM)
  Minimum inhibitory concentration, Pa FADDI-PA022: 0.5 µg/mL (≈ 0.439 µM)
  Minimum inhibitory concentration, Pa FADDI-PA025: 2 µg/mL (≈ 1.75 µM)
[5]
  Δ log (Treated-Control at 4 h): −1.35 log10 CFU/mL
[6]
  Δ log (Treated-Control at 4 h): −3.23 log10 CFU/mL
[7]
  Δ log (Treated-Control at 4 h): −3.08 log10 CFU/mL

## CCCCCCCC(=O)N[C@@H](CCN)C(=O)N[C@H](C(=O)N[C@@H](CCN)C(=O)N[C@H]1CCNC(=O)[C@H]([C@@H](C)O)NC(=O)[C@H](CCN)NC(=O)[C@H](CCN)NC(=O)[C@H]([C@@H](C)O)NC(=O)[C@@H](Cc2ccccc2)NC(=O)[C@H](CCN)NC1=O)[C@@H](C)O [Compound 22] (Octanoyl-[Dab]T[Dab][Dab][Dab][dF]T[Dab][Dab]T; lactam 4-C)
[1]
  MIC: 1 µg/mL (≈ 0.849 µM)
  Minimum inhibitory concentration, Ab A ATCC 17978: 1 µg/mL (≈ 0.849 µM)
  Minimum inhibitory concentration, Ab ATCC 19606: 1 µg/mL (≈ 0.849 µM)
  Minimum inhibitory concentration, Ab FADDI-AB034: 0.5 µg/mL (≈ 0.425 µM)
[2]
  Minimum inhibitory concentration, Ec FADDI-EC001: <0.125 µg/mL
  Minimum inhibitory concentration, Ec FADDI-EC003: <0.125 µg/mL
  Minimum inhibitory concentration, Ec FADDI-EC006: 0.25 µg/mL (≈ 0.212 µM)
[3]
  MIC: 0.5 µg/mL (≈ 0.425 µM)
[4]
  MIC: 1 µg/mL (≈ 0.849 µM)
  Minimum inhibitory concentration, Pa ATCC 27853: 1 µg/mL (≈ 0.849 µM)
  Minimum inhibitory concentration, Pa FADDI-PA022: 1 µg/mL (≈ 0.849 µM)
  Minimum inhibitory concentration, Pa FADDI-PA025: 16 µg/mL (≈ 13.6 µM)
[5]
  Δ log (Treated-Control at 4 h): −1.50 log10 CFU/mL
[6]
  Δ log (Treated-Control at 4 h): −3.11 log10 CFU/mL
[7]
  Δ log (Treated-Control at 4 h): −3.10 log10 CFU/mL

## CCCCCCCC(=O)N[C@@H](CCN)C(=O)N[C@H](C(=O)N[C@@H](CCN)C(=O)N[C@H]1CCNC(=O)[C@H]([C@@H](C)O)NC(=O)[C@H](CCN)NC(=O)[C@H](CCN)NC(=O)[C@H]([C@@H](C)O)NC(=O)[C@@H](CCCC)NC(=O)[C@H](CCN)NC1=O)[C@@H](C)O [Compound 24] (Octanoyl-[Dab]T[Dab][Dab][Dab][dNle]T[Dab][Dab]T; lactam 4-C)
[1]
  MIC: 1 µg/mL (≈ 0.875 µM)
  Minimum inhibitory concentration, Ab A ATCC 17978: 1 µg/mL (≈ 0.875 µM)
  Minimum inhibitory concentration, Ab ATCC 19606: 1 µg/mL (≈ 0.875 µM)
  Minimum inhibitory concentration, Ab FADDI-AB034: 1 µg/mL (≈ 0.875 µM)
[2]
  Minimum inhibitory concentration, Ec FADDI-EC001: <0.125 µg/mL
  Minimum inhibitory concentration, Ec FADDI-EC003: <0.125 µg/mL
  Minimum inhibitory concentration, Ec FADDI-EC006: 0.25 µg/mL (≈ 0.219 µM)
[3]
  MIC: <0.125 µg/mL
[4]
  MIC: 0.5 µg/mL (≈ 0.437 µM)
  Minimum inhibitory concentration, Pa ATCC 27853: 0.5 µg/mL (≈ 0.437 µM)
  Minimum inhibitory concentration, Pa FADDI-PA022: 0.5 µg/mL (≈ 0.437 µM)
  Minimum inhibitory concentration, Pa FADDI-PA025: 16 µg/mL (≈ 14 µM)
[5]
  Δ log (Treated-Control at 4 h): −2.16 log10 CFU/mL
[6]
  Δ log (Treated-Control at 4 h): −3.21 log10 CFU/mL
[7]
  Δ log (Treated-Control at 4 h): −2.31 log10 CFU/mL
